ChEMBL document CHEMBL1143865, “Pyrazinoindolone inhibitors of MAPKAP-K2” (Bioorg Med Chem Lett, 2008)
Blank lines part the entries; values can stand above or below the compound they belong to. Active and inactive are the calls of the source. No cut-off for these calls is given here.

Experiments:
[1] = Solubility at pH 7.4; format: physicochemical; details: buffer
THP-1 = assay: Inhibition of LPS-induced TNFalpha production in human THP1 cells
[2] = molecular target: MAP kinase-activated protein kinase 2 (Homo sapiens, UniProt P49137)
Sequence of MAP kinase-activated protein kinase 2 (P49137 whole entry): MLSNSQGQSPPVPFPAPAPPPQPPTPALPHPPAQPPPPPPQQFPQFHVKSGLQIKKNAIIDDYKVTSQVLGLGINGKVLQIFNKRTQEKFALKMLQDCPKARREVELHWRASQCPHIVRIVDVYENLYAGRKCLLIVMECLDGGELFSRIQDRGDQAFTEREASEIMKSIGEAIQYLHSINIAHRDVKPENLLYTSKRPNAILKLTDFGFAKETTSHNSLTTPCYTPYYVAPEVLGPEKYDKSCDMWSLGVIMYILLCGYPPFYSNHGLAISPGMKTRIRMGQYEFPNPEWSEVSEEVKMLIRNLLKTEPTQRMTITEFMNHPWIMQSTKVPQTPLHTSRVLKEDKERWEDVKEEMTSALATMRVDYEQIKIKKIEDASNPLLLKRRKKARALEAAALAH

[3] = Cmax in BALB/c mouse at 1.0 mg/kg, po; format: ADME, organism-based; parameters: dose 1 mg/kg, route oral; details: in vivo
[4] = AUC (0 to infinity) in BALB/c mouse at 1.0 mg/kg, po; format: ADME, organism-based; parameters: time infinity, dose 1 mg/kg, route oral; details: plasma
[5] = Oral bioavailability in BALB/c mouse at 1.0 mg/kg; format: ADME, organism-based; details: in vivo
Mus musculus [6] = assay: Clearance in BALB/c mouse at 0.5 mg/kg, iv expressed as %Q; format: ADME, organism-based; parameters: dose 0.5 mg/kg, route intravenous; details: in vivo
[7] = Mean retention time in BALB/c mouse at 0.5 mg/kg, iv; format: ADME, organism-based; parameters: dose 0.5 mg/kg, route intravenous; details: in vivo
[8] = AUC (0 to infinity) in BALB/c mouse at 0.5 mg/kg, iv; format: ADME, organism-based; parameters: time infinity, dose 0.5 mg/kg, route intravenous; details: plasma
[9] = Drug level in mouse plasma at 60 mg/kg, po after 90 mins; format: ADME, organism-based; parameters: dose 60 mg/kg, route oral
Mus musculus [10] = assay: Inhibition of LPS-stimulated TNFalpha production in mouse at 60 mg/kg, po; format: functional, organism-based; parameters: dose 60 mg/kg
[11] = molecular target: 3-phosphoinositide-dependent protein kinase 1 (Homo sapiens) (UniProt O15530); assay: Inhibition of PDK1 at 10 uM
Sequence of 3-phosphoinositide-dependent protein kinase 1 (Homo sapiens) (O15530 whole entry, looked up): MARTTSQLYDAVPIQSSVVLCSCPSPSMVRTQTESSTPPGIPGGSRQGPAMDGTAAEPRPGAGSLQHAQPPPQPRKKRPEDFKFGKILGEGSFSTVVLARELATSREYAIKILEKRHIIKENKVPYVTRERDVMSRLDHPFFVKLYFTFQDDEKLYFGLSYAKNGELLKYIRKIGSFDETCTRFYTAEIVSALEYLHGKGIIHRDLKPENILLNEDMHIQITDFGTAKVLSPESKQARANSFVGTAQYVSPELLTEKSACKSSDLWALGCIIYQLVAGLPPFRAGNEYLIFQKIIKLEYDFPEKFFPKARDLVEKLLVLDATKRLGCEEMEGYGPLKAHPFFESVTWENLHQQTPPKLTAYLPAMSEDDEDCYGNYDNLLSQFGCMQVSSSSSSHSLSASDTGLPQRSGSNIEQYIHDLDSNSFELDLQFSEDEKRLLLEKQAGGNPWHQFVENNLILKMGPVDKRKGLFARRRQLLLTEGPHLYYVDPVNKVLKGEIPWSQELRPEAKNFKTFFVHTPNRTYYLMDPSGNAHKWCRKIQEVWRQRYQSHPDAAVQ

[12] = molecular target: Rho-associated protein kinase 2 (Homo sapiens) (UniProt O75116); assay: Inhibition of ROCK2 at 10 uM
Sequence of Rho-associated protein kinase 2 (Homo sapiens) (O75116 whole entry, looked up): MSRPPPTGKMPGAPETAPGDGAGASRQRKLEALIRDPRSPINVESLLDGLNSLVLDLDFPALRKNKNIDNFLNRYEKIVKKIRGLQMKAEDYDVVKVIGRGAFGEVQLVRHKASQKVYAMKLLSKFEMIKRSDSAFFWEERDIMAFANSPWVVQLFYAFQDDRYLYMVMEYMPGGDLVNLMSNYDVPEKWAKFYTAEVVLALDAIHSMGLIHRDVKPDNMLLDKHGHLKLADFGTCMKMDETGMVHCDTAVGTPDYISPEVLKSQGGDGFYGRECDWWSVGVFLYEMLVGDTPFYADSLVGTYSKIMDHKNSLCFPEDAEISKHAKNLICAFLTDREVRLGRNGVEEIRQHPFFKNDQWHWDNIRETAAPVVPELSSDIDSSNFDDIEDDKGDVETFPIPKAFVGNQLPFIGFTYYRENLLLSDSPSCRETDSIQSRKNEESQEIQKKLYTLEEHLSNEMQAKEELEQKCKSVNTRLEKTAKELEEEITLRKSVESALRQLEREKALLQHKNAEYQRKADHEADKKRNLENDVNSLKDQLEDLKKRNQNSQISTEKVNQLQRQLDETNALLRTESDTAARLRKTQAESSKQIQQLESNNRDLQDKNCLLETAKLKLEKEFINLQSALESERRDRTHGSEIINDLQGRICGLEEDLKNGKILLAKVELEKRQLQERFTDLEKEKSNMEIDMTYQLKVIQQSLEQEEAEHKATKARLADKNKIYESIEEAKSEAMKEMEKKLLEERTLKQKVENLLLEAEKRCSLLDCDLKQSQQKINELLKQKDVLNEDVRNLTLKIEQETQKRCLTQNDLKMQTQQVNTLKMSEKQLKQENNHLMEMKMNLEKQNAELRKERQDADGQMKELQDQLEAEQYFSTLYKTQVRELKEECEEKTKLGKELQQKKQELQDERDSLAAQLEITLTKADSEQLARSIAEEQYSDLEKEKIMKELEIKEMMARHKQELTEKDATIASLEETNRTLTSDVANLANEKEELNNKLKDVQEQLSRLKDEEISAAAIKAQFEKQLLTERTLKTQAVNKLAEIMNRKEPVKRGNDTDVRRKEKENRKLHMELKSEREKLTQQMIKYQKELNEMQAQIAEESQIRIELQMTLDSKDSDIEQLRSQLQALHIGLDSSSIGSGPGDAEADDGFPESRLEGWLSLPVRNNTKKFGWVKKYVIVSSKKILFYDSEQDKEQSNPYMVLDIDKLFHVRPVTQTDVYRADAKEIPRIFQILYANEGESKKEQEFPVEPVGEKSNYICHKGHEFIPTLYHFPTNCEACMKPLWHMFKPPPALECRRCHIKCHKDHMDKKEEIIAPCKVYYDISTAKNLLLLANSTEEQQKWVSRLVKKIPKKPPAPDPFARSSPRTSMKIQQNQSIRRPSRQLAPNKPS

[13] = molecular target: Dual specificity tyrosine-phosphorylation-regulated kinase 1A (Homo sapiens) (UniProt Q13627); assay: Inhibition of DYRK1A at 10 uM
[14] = Inhibition of AMPK at 10 uM
[15] = Inhibition of MNK2alpha at 10 uM
[16] = molecular target: T1, MAP kinase-activated protein kinase 5 (Homo sapiens) (UniProt Q8IW41); assay: Inhibition of PRAK at 10 uM
T1 sequence (whole entry): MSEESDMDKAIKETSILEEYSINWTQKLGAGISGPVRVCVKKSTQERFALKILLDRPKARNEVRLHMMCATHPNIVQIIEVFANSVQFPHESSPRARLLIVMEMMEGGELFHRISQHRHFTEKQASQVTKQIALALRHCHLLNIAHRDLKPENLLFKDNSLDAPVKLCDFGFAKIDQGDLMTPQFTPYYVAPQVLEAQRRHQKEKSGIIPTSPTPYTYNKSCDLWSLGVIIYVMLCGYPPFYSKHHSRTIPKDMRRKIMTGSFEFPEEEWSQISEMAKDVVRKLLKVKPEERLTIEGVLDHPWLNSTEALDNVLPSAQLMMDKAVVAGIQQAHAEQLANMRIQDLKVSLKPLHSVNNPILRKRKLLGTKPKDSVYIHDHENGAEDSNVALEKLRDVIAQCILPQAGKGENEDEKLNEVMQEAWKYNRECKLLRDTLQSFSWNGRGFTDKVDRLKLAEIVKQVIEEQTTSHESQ

[17] = molecular target: Mitogen-activated protein kinase kinase kinase 14 (Homo sapiens, UniProt Q99558); assay: Inhibition of NIK
Sequence of Mitogen-activated protein kinase kinase kinase 14 (Q99558 whole entry): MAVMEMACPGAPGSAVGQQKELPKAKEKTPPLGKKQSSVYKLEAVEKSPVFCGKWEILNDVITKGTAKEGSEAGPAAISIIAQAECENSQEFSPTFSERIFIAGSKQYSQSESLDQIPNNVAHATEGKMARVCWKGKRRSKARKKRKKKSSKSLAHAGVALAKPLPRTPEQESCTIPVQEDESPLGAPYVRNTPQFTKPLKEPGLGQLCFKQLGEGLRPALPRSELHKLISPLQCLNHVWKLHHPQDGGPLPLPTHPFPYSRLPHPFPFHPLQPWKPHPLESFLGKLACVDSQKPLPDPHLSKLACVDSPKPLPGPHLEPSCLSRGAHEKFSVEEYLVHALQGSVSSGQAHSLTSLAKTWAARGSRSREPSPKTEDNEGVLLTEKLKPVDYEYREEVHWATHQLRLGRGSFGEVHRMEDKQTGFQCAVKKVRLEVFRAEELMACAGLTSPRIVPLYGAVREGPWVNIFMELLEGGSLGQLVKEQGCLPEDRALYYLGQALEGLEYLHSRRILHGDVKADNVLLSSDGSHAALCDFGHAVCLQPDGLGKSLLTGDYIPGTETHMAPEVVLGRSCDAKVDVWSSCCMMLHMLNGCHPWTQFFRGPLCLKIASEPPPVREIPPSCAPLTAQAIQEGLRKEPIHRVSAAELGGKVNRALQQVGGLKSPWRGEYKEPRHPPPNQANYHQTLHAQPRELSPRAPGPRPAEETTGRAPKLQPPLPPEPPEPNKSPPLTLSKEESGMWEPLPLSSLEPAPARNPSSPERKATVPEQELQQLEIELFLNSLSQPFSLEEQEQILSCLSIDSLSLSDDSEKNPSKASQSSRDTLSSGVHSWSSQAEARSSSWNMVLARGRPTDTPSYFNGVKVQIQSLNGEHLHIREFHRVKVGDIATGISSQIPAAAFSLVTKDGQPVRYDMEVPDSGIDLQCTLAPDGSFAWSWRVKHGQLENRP

[18] = molecular target: Mitogen-activated protein kinase 1 (Homo sapiens, UniProt P28482); assay: Inhibition of Erk2
[19] = molecular target: T2, Lymphokine-activated killer T-cell-originated protein kinase (Homo sapiens) (UniProt Q96KB5); assay: Inhibition of PBK at 10 uM
T2 sequence (whole entry): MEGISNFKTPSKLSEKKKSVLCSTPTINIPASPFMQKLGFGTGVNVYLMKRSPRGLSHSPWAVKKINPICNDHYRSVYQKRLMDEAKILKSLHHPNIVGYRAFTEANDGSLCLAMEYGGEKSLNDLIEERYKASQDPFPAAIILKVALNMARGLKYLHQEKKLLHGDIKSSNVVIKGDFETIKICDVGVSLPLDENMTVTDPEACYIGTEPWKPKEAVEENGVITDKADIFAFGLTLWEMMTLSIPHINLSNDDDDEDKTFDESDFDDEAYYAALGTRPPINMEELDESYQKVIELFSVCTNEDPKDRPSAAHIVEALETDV

[20] = molecular target: T3, Serine/threonine-protein kinase 3 (Homo sapiens) (UniProt Q13188); assay: Inhibition of MST2 at 10 uM
T3 sequence (whole entry): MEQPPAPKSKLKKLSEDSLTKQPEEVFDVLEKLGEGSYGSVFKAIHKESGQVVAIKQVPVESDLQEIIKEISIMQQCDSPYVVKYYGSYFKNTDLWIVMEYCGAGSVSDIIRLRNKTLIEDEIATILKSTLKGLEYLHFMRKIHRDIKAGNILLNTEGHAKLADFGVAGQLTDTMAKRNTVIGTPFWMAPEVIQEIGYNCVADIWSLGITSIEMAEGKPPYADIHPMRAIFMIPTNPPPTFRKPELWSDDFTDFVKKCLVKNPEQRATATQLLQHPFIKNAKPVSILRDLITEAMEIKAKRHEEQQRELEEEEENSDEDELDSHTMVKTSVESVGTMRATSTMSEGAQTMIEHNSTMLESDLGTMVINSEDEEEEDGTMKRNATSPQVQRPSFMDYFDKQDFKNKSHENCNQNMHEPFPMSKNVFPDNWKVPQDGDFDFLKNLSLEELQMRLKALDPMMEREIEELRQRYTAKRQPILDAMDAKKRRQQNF

[21] = Inhibition of MAPKAP-K1
[22] = molecular target: SRSF protein kinase 1 (Homo sapiens) (UniProt Q96SB4); assay: Inhibition of SRPK1 at 10 uM
Sequence of SRSF protein kinase 1 (Homo sapiens) (Q96SB4 whole entry): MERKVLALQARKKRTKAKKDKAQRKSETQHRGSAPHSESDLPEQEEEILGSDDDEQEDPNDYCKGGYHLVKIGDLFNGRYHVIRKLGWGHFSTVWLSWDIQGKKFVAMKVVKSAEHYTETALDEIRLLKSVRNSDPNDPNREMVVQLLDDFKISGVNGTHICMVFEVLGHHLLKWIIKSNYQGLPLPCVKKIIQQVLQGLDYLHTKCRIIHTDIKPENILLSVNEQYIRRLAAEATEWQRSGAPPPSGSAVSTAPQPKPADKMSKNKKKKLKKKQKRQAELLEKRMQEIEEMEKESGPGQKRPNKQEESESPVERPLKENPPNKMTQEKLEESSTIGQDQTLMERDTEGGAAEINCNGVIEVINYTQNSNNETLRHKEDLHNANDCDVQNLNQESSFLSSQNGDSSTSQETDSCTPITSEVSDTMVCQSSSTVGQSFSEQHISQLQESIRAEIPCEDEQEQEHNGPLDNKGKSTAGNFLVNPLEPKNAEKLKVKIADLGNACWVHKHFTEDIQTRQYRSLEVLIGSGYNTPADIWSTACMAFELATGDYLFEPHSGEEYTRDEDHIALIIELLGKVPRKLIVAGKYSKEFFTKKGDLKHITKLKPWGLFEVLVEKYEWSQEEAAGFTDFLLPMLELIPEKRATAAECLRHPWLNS

[23] = molecular target: Dual specificity protein kinase CLK1 (Homo sapiens, UniProt P49759); assay: Inhibition of CLK1
Sequence of Dual specificity protein kinase CLK1 (P49759 whole entry): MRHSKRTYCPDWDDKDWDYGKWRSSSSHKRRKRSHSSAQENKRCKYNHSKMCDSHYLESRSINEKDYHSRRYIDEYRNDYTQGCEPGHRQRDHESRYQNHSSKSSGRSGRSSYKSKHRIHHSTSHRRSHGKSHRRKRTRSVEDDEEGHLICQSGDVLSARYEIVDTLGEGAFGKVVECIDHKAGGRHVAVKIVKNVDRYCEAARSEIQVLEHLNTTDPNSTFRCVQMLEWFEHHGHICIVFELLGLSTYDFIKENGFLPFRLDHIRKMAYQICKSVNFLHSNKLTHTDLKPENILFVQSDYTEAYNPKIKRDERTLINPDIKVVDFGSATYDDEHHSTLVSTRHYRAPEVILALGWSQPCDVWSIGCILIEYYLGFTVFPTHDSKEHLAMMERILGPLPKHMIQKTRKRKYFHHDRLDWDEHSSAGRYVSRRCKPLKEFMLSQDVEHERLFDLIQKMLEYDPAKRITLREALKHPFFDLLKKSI

[24] = molecular target: T4, Mitogen-activated protein kinase 15 (Homo sapiens) (UniProt Q8TD08); assay: Inhibition of ERK8 at 10 uM
T4 sequence (whole entry): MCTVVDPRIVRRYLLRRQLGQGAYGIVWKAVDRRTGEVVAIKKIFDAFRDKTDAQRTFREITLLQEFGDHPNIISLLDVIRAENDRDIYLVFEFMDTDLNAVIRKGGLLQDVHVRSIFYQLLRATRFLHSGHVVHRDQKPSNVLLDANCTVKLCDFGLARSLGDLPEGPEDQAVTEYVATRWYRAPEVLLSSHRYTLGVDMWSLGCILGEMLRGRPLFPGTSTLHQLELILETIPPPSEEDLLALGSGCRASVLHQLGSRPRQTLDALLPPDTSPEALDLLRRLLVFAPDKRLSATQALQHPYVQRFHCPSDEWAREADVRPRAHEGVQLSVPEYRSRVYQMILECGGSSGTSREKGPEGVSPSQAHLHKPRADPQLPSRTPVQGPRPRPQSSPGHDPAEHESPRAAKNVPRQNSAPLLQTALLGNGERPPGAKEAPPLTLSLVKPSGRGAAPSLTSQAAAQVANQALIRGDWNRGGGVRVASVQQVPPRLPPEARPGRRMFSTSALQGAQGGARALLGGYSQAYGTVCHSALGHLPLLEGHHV

[25] = molecular target: Glycogen synthase kinase-3 beta (Homo sapiens, UniProt P49841); assay: Inhibition of GSK3-beta
[26] = molecular target: Serine/threonine-protein kinase Chk2 (Homo sapiens) (UniProt O96017); assay: Inhibition of CHK2 at 10 uM
Sequence of Serine/threonine-protein kinase Chk2 (Homo sapiens) (O96017 whole entry): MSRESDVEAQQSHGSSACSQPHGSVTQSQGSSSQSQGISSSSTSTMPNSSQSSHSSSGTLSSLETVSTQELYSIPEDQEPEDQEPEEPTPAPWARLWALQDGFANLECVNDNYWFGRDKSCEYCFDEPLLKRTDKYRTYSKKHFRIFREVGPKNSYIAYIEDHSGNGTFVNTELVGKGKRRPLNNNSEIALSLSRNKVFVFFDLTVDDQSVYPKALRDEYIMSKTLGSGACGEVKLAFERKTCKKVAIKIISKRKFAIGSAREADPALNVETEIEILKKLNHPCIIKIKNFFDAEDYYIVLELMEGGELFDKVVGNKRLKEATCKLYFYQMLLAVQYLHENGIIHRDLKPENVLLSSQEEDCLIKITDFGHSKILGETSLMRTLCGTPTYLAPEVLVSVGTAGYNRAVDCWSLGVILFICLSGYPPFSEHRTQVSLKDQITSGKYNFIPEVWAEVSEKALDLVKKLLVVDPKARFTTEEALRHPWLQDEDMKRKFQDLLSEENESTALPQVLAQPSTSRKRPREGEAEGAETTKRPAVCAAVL

solubility [1]: > 30 µg/mL | IC50 (THP-1): 1600 nM
SMILES: CC1CNC(=O)c2cc3ccc(C(=O)Nc4nc(C(=O)NC5CCN(Cc6ccccc6)CC5)cs4)cc3n21 (stereo unspecified)

IC50 (THP-1): > 5000 nM
SMILES: CC1CNC(=O)c2cc3ccc(C(=O)Nc4nc(C(=O)NC5CCN(C)CC5)cs4)cc3n21 (stereo unspecified)

IC50 (THP-1): 430 nM
SMILES: CC(C)(C)CN1CCC(NC(=O)c2csc(NC(=O)c3ccc4cc5n(c4c3)C(C)(C)CNC5=O)n2)CC1

IC50 (THP-1): > 5000 nM
SMILES: CC1CNC(=O)c2[nH]c3ccc(C(=O)Nc4nc(C(=O)NC5CCN(C)CC5)cs4)cc3c21 (stereo unspecified)

SMILES: CC1CNC(=O)c2cc3ccc(C(=O)Nc4nc(C(=O)NC5CCOCC5)cs4)cc3n21 (stereo unspecified)
IC50 (THP-1): 5800 nM | IC50 [2]: 12 nM

IC50 (THP-1): 900 nM
SMILES: CC1(C)CNC(=O)c2cc3ccc(C(=O)Nc4nc(C(=O)NC5CCN(Cc6ccccc6)CC5)cs4)cc3n21

IC50 (THP-1): 1700 nM
SMILES: CN1CCC(NC(=O)c2csc(NC(=O)c3ccc4cc5n(c4c3)C3(CCC3)CNC5=O)n2)CC1

IC50 (THP-1): 520 nM
SMILES: O=C(Nc1nc(C(=O)NC2CCN(Cc3ccccc3)CC2)cs1)c1ccc2cc3n(c2c1)C1(CCC1)CNC3=O

IC50 (THP-1): 2400 nM
SMILES: CN1CCC(NC(=O)c2csc(NC(=O)c3ccc4cc5n(c4c3)C(C)(C)CNC5=O)n2)CC1

IC50 (THP-1): 1000 nM | IC50 [2]: 19 nM
SMILES: CC1(C)CNC(=O)c2cc3ccc(C(=O)Nc4nc(C(=O)NC5CCCCC5)cs4)cc3n21

solubility [1]: > 30 µg/mL | IC50 (THP-1): 8900 nM | IC50 [2]: 7 nM
SMILES: CCN1CCC(NC(=O)c2csc(NC(=O)c3ccc4cc5n(c4c3)C(C)CNC5=O)n2)CC1 (stereo unspecified)

Cmax [3]: 60 nM | AUC(0-inf) [4]: 88 ng·h/mL | bioavailability [5]: 8% | CL(%Q) (Mus musculus [6]): 18% | solubility [1]: < 0.1 µg/mL | MRT [7]: 0.8 h | AUC(0-inf) [8]: 525 ng·h/mL
SMILES: CC1CNC(=O)c2[nH]c3ccc(C(=O)Nc4nc(C(=O)NC5CCCCC5)cs4)cc3c21 (stereo unspecified)

concentration at 1.5 h [9]: 690 nM | solubility [1]: > 30 µg/mL | IC50 (THP-1): 735 nM
SMILES: CC1CNC(=O)c2cc3ccc(C(=O)Nc4nc(C(=O)NC5CCN(CC(C)(C)C)CC5)cs4)cc3n21 (stereo unspecified)
Activity (Mus musculus [10]): inactive

solubility [1]: > 30 µg/mL | IC50 (THP-1): 1670 nM
SMILES: CC(C)CN1CCC(NC(=O)c2csc(NC(=O)c3ccc4cc5n(c4c3)C(C)CNC5=O)n2)CC1 (stereo unspecified)

IC50 (THP-1): 1800 nM | IC50 [2]: 45 nM
SMILES: CC1CCC(NC(=O)c2csc(NC(=O)c3ccc4cc5n(c4c3)C(C)CNC5=O)n2)CC1 (stereo unspecified)

Cmax [3]: 80 nM | AUC(0-inf) [4]: 115 ng·h/mL | bioavailability [5]: 11% | CL(%Q) (Mus musculus [6]): 18% | solubility [1]: < 0.1 µg/mL | IC50 (THP-1): 1400 nM | IC50 [2]: 20 nM | MRT [7]: 2 h | AUC(0-inf) [8]: 535 ng·h/mL
SMILES: CC1CNC(=O)c2cc3ccc(C(=O)Nc4nc(C(=O)NC5CCCCC5)cs4)cc3n21 (stereo unspecified)

inhibition [11]: 92% | Cmax [3]: 60 nM | AUC(0-inf) [4]: 446 ng·h/mL | inhibition [12]: 63% | inhibition [13]: 94% | inhibition [14]: 98% | bioavailability [5]: > 100% | inhibition [15]: 80% | inhibition [16]: 98% | IC50 [17]: 480 nM | CL(%Q) (Mus musculus [6]): 30% | solubility [1]: > 96 µg/mL | IC50 [18]: > 3000 nM | IC50 (THP-1): 300 nM | inhibition [20]: 86% | IC50 [21]: 25 nM | MRT [7]: 6.1 h | inhibition [22]: 60% | IC50 [23]: 93 nM | IC50 [25]: 920 nM | inhibition [26]: 84% | AUC(0-inf) [8]: 165 ng·h/mL
SMILES: CC(C)(C)CN1CCC(NC(=O)c2csc(NC(=O)c3ccc4cc5n(c4c3)C3(CCC3)CNC5=O)n2)CC1
inhibition [19]: 75% | inhibition [24]: 82%

SMILES: CC1CNC(=O)c2cc3ccc(C(=O)Nc4nc(C(=O)NCC(C)(C)C)cs4)cc3n21 (stereo unspecified)
IC50 (THP-1): 2700 nM | IC50 [2]: 46 nM
